Patent US20140296154A1, “METHOD OF PREVENTING DEVELOPMENT OF PSORIATIC LESIONS” (YALE UNIVERSITY, priority 2011, published 2014)
Square brackets hold non-standard residues; d marks the D form. Ends that are not written are not given here.

What was measured:
A20 = experiment: Western blot of A20 in skin of WT and PSX mice with and without TPA; type: in vivo, mouse; details: topical TPA; wild-type and old (24-week) PSX mice compared to young (4-week) PSX mice
[1] = Topical delivery of FITC-labeled NBD peptide into skin; type: in vivo
Text: To assess the ability to deliver the NBD peptide of SEQ ID NO: 122 topically, the peptide was conjugated to the fluorophore FITC, and the labeled peptide prepared in two different formulations. The first formulation consisted of the labeled peptide dissolved in vaseline ointment, and the second formulation consisted of the labeled peptide dissolved in DMSO.

[2] = system: PSX mice (K14-VEGF transgenic psoriasis model); experiment: Ear thickness / psoriatic lesion development in PSX (homozygous K14-VEGF transgenic) mice; type: in vivo, mouse; details: intraperitoneal 50 micrograms twice weekly; for mean ear thickness / psoriatic skin lesions: older PSX mice with fully developed psoriatic lesions, 8 weeks, vs untreated control
Text: This K14-VEGF mouse was backcrossed to homozygosity for the transgene(s), generating a mouse model that develops psoriasiform lesions on the ears spontaneously and after trauma. These are referred to as PSX mice. […] FIGS. 3A-D illustrate the PSX transgenic mouse model used in screening psoriasis treatments in accordance with the present invention. […] FIGS. 3C and 3D show pathology of the mouse model.
The NF-κB inhibitor used for the treatments in this example was the fusion protein drqikiwfqnrrmkwkkTALDWSWLQTE (SEQ ID NO: 122), where lower case letters indicate D-amino acid residues and upper case letters indicate L-amino acid residues. This inhibitor includes a translocation domain of Antennapedia and an Nemo Binding Domain (NBD) peptide.
The peptide was formulated and administered as an intraperitoneal injection of 50 micrograms to either PSX mice after they had fully developed psoriatic skin lesions (FIG. 7) or prior to the development of psoriatic plaques when the ears were still uninvolved (FIG. 8). Assessment of the development of psoriatic lesions was measured by the thickness of ear tissue.

## CCCCCCCCCCCCCC(=O)O[C@@H]1[C@@H](C)[C@@]2(O)[C@@H](C=C(CO)C[C@]3(O)C(=O)C(C)=C[C@@H]23)[C@@H]2C(C)(C)[C@]12OC(C)=O [TPA, 12-O-tetradecanoyl phorbol-13-acetate]
A20
  A20 protein induction: robust induction

## FITC-conjugated NBD peptide of SEQ ID NO: 122: NBD peptide of SEQ ID NO: 122 conjugated to the fluorophore FITC, in vaseline ointment or DMSO ([dD][dR][dQ][dI][dK][dI][dW][dF][dQ][dN][dR][dR][dM][dK][dW][dK][dK]TALDWSWLQTE; also: FITC conjugate, site not given here)
[1]; peptide in DMSO
  peptide localisation in skin after topical administration: uptake is prevalent among the cells in both the epidermis and dermis
[1]; peptide in vaseline ointment
  peptide localisation in skin after topical administration: limited to the stratum corneum

## drqikiwfqnrrmkwkkTALDWSWLQTE ([dD][dR][dQ][dI][dK][dI][dW][dF][dQ][dN][dR][dR][dM][dK][dW][dK][dK]TALDWSWLQTE) [SEQ ID NO: 122]
[2]; listed as NF-κB inhibitor
  mean ear thickness / psoriatic skin lesions: no change
[2]; listed as peptide
  mean ear thickness / psoriatic skin lesions: no effect
[2]; young PSX mice treated prior to development of psoriatic plaques, vs vehicle (DMSO)
  thickening of the ear and development of phenotypic lesions of psoriasis: prevented the thickening of the ear
